Results published in ChEMBL document CHEMBL3885881, “DrugMatrix”.

Species: Rattus norvegicus
Test: DrugMatrix - Regimen: Daily Repeat
Type: toxicity, organism-based, Sprague-Dawley
Set-up: regimen Daily Repeat, gender Male, age 6-8 weeks
Settings: in vivo, po, route oral GAVAGE, […]; for ABSOLUTE BASOPHIL / ABSOLUTE EOSINOPHIL / ABSOLUTE LYMPHOCYTE / ABSOLUTE MONOCYTE / ABSOLUTE SEGMENTED NEUTROPHIL / BASOPHIL / EOSINOPHIL / ERYTHROCYTE COUNT / HEMATOCRIT / HEMOGLOBIN / LEUKOCYTE COUNT / LYMPHOCYTE / MEAN CORPUSCULAR HEMOGLOBIN / MEAN CORPUSCULAR HEMOGLOBIN CONCENTRATION / MEAN CORPUSCULAR VOLUME / MONOCYTE / NEUTROPHIL / NUCLEATED RED BLOOD CELLS / PLATELET COUNT: tissue Blood; for ALANINE AMINOTRANSFERASE / ALBUMIN / ALKALINE PHOSPHATASE / ASPARTATE AMINOTRANSFERASE / BLOOD UREA NITROGEN / CARBON DIOXIDE / CHLORIDE / CHOLESTEROL / CREATINE PHOSPHOKINASE / CREATININE / GLUCOSE / LACTATE DEHYDROGENASE / LIPASE / PHOSPHORUS / POTASSIUM / SODIUM / TOTAL BILIRUBIN / TOTAL PROTEIN / URIC ACID: tissue Plasma
[1] = 81 mg/kg, 72 h, dose level High, time 3 day
[2] = 81 mg/kg, 120 h, dose level High, time 5 day
[3] = 72 h, dose 8.1 mg/Kg, dose level Low, time 3 day
[4] = 120 h, dose 8.1 mg/Kg, dose level Low, time 5 day

Nc1ccc(Cc2ccc(N)cc2)cc1
ABSOLUTE BASOPHIL [1]: 0 CELLS/uL | ABSOLUTE EOSINOPHIL [1]: 75.33 CELLS/uL | ABSOLUTE LYMPHOCYTE [1]: 15902.67 CELLS/uL | ABSOLUTE MONOCYTE [1]: 589 CELLS/uL | ABSOLUTE SEGMENTED NEUTROPHIL [1]: 3066.33 CELLS/uL | BASOPHIL [1]: 0% | EOSINOPHIL [1]: 0.33% | ERYTHROCYTE COUNT [1]: 5.52 x10E6/uL | HEMATOCRIT [1]: 34.27% | HEMOGLOBIN [1]: 13.27 G/DL | LEUKOCYTE COUNT [1]: 19.63 x10E3/uL | LYMPHOCYTE [1]: 81.33% | MEAN CORPUSCULAR HEMOGLOBIN [1]: 24.13 pg | MEAN CORPUSCULAR HEMOGLOBIN CONCENTRATION [1]: 38.83 G/DL | MEAN CORPUSCULAR VOLUME [1]: 62.2 fL | MONOCYTE [1]: 3% | NEUTROPHIL [1]: 15.33% | NUCLEATED RED BLOOD CELLS [1]: 0.33 /100WBC | PLATELET COUNT [1]: 1017.33 x10E3/uL | ALANINE AMINOTRANSFERASE [1]: 253.67 u/L | ALBUMIN [1]: 3.4 G/DL | ALKALINE PHOSPHATASE [1]: 742 u/L | ASPARTATE AMINOTRANSFERASE [1]: 450.67 u/L | BLOOD UREA NITROGEN [1]: 10.67 mg/dL | CARBON DIOXIDE [1]: 24.33 mmol/L | CHLORIDE [1]: 102.33 MEQ/L | CHOLESTEROL [1]: 143.67 mg/dL | CREATINE PHOSPHOKINASE [1]: 1027.33 u/L | CREATININE [1]: 0.14 mg/dL | GLUCOSE [1]: 152 mg/dL | LACTATE DEHYDROGENASE [1]: 723.67 u/L | LIPASE [1]: 11 u/L | PHOSPHORUS [1]: 11.77 mg/dL | POTASSIUM [1]: 5.87 MEQ/L | SODIUM [1]: 142.6 MEQ/L | TOTAL BILIRUBIN [1]: 0.9 mg/dL | TOTAL PROTEIN [1]: 5.13 G/DL | URIC ACID [1]: 1.27 mg/dL | ABSOLUTE BASOPHIL [2]: 0 CELLS/uL | ABSOLUTE EOSINOPHIL [2]: 0 CELLS/uL | ABSOLUTE LYMPHOCYTE [2]: 23023 CELLS/uL | ABSOLUTE MONOCYTE [2]: 1729.67 CELLS/uL | ABSOLUTE SEGMENTED NEUTROPHIL [2]: 3714 CELLS/uL | BASOPHIL [2]: 0% | EOSINOPHIL [2]: 0% | ERYTHROCYTE COUNT [2]: 5.81 x10E6/uL | HEMATOCRIT [2]: 34.63% | HEMOGLOBIN [2]: 13.53 G/DL | LEUKOCYTE COUNT [2]: 28.47 x10E3/uL | LYMPHOCYTE [2]: 81% | MEAN CORPUSCULAR HEMOGLOBIN [2]: 23.33 pg | MEAN CORPUSCULAR HEMOGLOBIN CONCENTRATION [2]: 39.1 G/DL | MEAN CORPUSCULAR VOLUME [2]: 59.67 fL | MONOCYTE [2]: 6% | NEUTROPHIL [2]: 13% | NUCLEATED RED BLOOD CELLS [2]: 0 /100WBC | PLATELET COUNT [2]: 1124.33 x10E3/uL | ALANINE AMINOTRANSFERASE [2]: 131.67 u/L | ALBUMIN [2]: 3.4 G/DL | ALKALINE PHOSPHATASE [2]: 589 u/L | ASPARTATE AMINOTRANSFERASE [2]: 255.33 u/L | BLOOD UREA NITROGEN [2]: 14 mg/dL | CARBON DIOXIDE [2]: 28.33 mmol/L | CHLORIDE [2]: 101.67 MEQ/L | CHOLESTEROL [2]: 138.33 mg/dL | CREATINE PHOSPHOKINASE [2]: 541 u/L | CREATININE [2]: 0.23 mg/dL | GLUCOSE [2]: 138.33 mg/dL | LACTATE DEHYDROGENASE [2]: 636.33 u/L | LIPASE [2]: 11.67 u/L | PHOSPHORUS [2]: 9.3 mg/dL | POTASSIUM [2]: 5.58 MEQ/L | SODIUM [2]: 142.97 MEQ/L | TOTAL BILIRUBIN [2]: 0.83 mg/dL | TOTAL PROTEIN [2]: 5.7 G/DL | URIC ACID [2]: 1.2 mg/dL | ABSOLUTE BASOPHIL [3]: 0 CELLS/uL | ABSOLUTE EOSINOPHIL [3]: 0 CELLS/uL | ABSOLUTE LYMPHOCYTE [3]: 10998 CELLS/uL | ABSOLUTE MONOCYTE [3]: 210.33 CELLS/uL | ABSOLUTE SEGMENTED NEUTROPHIL [3]: 1658.33 CELLS/uL | BASOPHIL [3]: 0% | EOSINOPHIL [3]: 0% | ERYTHROCYTE COUNT [3]: 5.48 x10E6/uL | HEMATOCRIT [3]: 34.13% | HEMOGLOBIN [3]: 13.5 G/DL | LEUKOCYTE COUNT [3]: 12.87 x10E3/uL | LYMPHOCYTE [3]: 85.67% | MEAN CORPUSCULAR HEMOGLOBIN [3]: 24.7 pg | MEAN CORPUSCULAR HEMOGLOBIN CONCENTRATION [3]: 39.6 G/DL | MEAN CORPUSCULAR VOLUME [3]: 62.3 fL | MONOCYTE [3]: 1.67% | NEUTROPHIL [3]: 12.67% | NUCLEATED RED BLOOD CELLS [3]: 0 /100WBC | PLATELET COUNT [3]: 1052.33 x10E3/uL | ALANINE AMINOTRANSFERASE [3]: 74.67 u/L | ALBUMIN [3]: 3.93 G/DL | ALKALINE PHOSPHATASE [3]: 451 u/L | ASPARTATE AMINOTRANSFERASE [3]: 94.33 u/L | BLOOD UREA NITROGEN [3]: 12 mg/dL | CARBON DIOXIDE [3]: 24 mmol/L | CHLORIDE [3]: 102.67 MEQ/L | CHOLESTEROL [3]: 79 mg/dL | CREATINE PHOSPHOKINASE [3]: 294.67 u/L | CREATININE [3]: 0.2 mg/dL | GLUCOSE [3]: 157.33 mg/dL | LACTATE DEHYDROGENASE [3]: 177 u/L | LIPASE [3]: 12.33 u/L | PHOSPHORUS [3]: 12.33 mg/dL | POTASSIUM [3]: 5.95 MEQ/L | SODIUM [3]: 143.97 MEQ/L | TOTAL BILIRUBIN [3]: 0.17 mg/dL | TOTAL PROTEIN [3]: 5.47 G/DL | URIC ACID [3]: 1.27 mg/dL | ABSOLUTE BASOPHIL [4]: 0 CELLS/uL | ABSOLUTE EOSINOPHIL [4]: 0 CELLS/uL | ABSOLUTE LYMPHOCYTE [4]: 11058.67 CELLS/uL | ABSOLUTE MONOCYTE [4]: 46 CELLS/uL | ABSOLUTE SEGMENTED NEUTROPHIL [4]: 1295.33 CELLS/uL | BASOPHIL [4]: 0% | EOSINOPHIL [4]: 0% | ERYTHROCYTE COUNT [4]: 5.5 x10E6/uL | HEMATOCRIT [4]: 34.53% | HEMOGLOBIN [4]: 13.8 G/DL | LEUKOCYTE COUNT [4]: 12.4 x10E3/uL | LYMPHOCYTE [4]: 89.67% | MEAN CORPUSCULAR HEMOGLOBIN [4]: 25.13 pg | MEAN CORPUSCULAR HEMOGLOBIN CONCENTRATION [4]: 39.97 G/DL | MEAN CORPUSCULAR VOLUME [4]: 62.83 fL | MONOCYTE [4]: 0.33% | NEUTROPHIL [4]: 10% | NUCLEATED RED BLOOD CELLS [4]: 0 /100WBC | PLATELET COUNT [4]: 1265 x10E3/uL | ALANINE AMINOTRANSFERASE [4]: 63.67 u/L | ALBUMIN [4]: 4.2 G/DL | ALKALINE PHOSPHATASE [4]: 474 u/L | ASPARTATE AMINOTRANSFERASE [4]: 88.67 u/L | BLOOD UREA NITROGEN [4]: 11.33 mg/dL | CARBON DIOXIDE [4]: 35.33 mmol/L | CHLORIDE [4]: 100.33 MEQ/L | CHOLESTEROL [4]: 59.33 mg/dL | CREATINE PHOSPHOKINASE [4]: 280.67 u/L | CREATININE [4]: 0.16 mg/dL | GLUCOSE [4]: 138.67 mg/dL | LACTATE DEHYDROGENASE [4]: 317.67 u/L | LIPASE [4]: 10.67 u/L | PHOSPHORUS [4]: 10.57 mg/dL | POTASSIUM [4]: 6.26 MEQ/L | SODIUM [4]: 144.83 MEQ/L | TOTAL BILIRUBIN [4]: 0.2 mg/dL | TOTAL PROTEIN [4]: 5.93 G/DL | URIC ACID [4]: 1.4 mg/dL
